According to patent EP1382597A2, “Steroid receptor modulator compounds and methods” (LIGAND PHARMACEUTICALS, INC., priority 1994, dated 1996):

Columns and labels:
[1] = molecular target: T1, human PR-B (Homo sapiens, UniProt P06401); assay: Co-transfection assay, PR agonist activity; assay type: cell-based; conditions: for Emax: CV-1, read-out: PR Agonist CV-1 Cells Efficacy (%);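 on all read-outs here: CV-1 cells (African green monkey kidney) co-transfected with receptor plasmid and hormone-responsive firefly luciferase reporter, agonism read as compound-dependent rise in luciferase signal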
T1 construct: expressed in transfected cells; host or cells: CV-1 cells (African green monkey kidney fibroblasts), transient transfection
T1 sequence (P06401 1-933): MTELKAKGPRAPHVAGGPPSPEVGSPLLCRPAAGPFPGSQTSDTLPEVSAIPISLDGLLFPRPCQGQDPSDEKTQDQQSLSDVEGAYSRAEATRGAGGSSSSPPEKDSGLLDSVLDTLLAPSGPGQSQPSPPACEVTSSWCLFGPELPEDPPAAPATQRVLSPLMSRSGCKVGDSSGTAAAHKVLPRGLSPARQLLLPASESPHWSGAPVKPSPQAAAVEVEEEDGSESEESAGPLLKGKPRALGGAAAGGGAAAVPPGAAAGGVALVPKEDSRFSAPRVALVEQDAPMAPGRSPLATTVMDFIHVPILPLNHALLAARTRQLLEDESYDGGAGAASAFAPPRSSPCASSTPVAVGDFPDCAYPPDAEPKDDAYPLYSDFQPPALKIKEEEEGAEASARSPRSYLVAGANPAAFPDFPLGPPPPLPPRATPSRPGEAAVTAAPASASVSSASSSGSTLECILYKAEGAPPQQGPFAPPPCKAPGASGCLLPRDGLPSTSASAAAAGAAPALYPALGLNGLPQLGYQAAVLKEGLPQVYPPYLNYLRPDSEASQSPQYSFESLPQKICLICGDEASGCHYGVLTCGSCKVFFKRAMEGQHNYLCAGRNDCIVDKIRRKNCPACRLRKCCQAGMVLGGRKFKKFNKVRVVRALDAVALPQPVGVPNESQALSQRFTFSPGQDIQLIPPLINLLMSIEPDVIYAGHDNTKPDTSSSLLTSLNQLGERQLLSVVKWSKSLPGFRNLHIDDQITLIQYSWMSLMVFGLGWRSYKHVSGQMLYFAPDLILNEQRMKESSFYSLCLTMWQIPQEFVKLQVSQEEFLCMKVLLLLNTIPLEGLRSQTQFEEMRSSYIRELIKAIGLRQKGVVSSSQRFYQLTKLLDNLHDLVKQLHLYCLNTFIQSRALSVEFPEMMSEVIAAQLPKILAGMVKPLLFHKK

[2] = molecular target: T1, human PR-B; assay: Co-transfection assay, PR antagonist activity; assay type: cell-based; conditions: for Emax: CV-1, read-out: PR Antagonist CV-1 Cells Efficacy (%);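 on all read-outs here: monkey kidney fibroblasts co-transfected with receptor expression plasmid and hormone-responsive luciferase reporter, antagonism read as reduced luciferase signal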

Row | SMILES | PR Agonist CV-1 Cells Efficacy (%) ([1]; cv-1 cells) | Emax [1] | Emax [2] | PR Agonist CV-1 Cells Efficacy (%) ([1]; CV-1 cells, percent maximal response relative to reference agonist progesterone) | PR Antagonist CV-1 Cells Efficacy (%) ([2]; CV-1 cells, percent maximal inhibition, progesterone at its EC50)
1 | CC1=CC(C)(C)Nc2ccc(-c3cc(F)cc(C#N)c3)cc21 [Compound 271, 6-(3-Cyano-5-fluorophenyl)-1,2-dihydro-2,2,4-trimethylquinoline] | na (key: na = not active (i.e. efficacy of <20 and potency of >10,000)) | – | – | – | –
2 | CC1(C)Nc2ccc3c(c2C(=O)C1(C)C)C(c1ccc(Cl)cc1)Oc1ccccc1-3 (racemic) [Compound 379, (R/S)-5-(4-Chlorophenyl)-1,2,3,4-tetrahydro-2,2,3,3-tetramethyl-5H-chromeno[3,4-f]-4-quinolinone] | – | < 20% | 87% | – | –
3 | CC1=CC(C)(C)Nc2ccc3c(c21)C(C)Oc1ccc(Cl)cc1-3 (racemic) [Compound 332, (R/S)-9-Chloro-1,2-dihydro-2,2,4,5-tetramethyl-5H-chromeno[3,4-f]quinoline] | – | 138% | < 20% | – | –
4 | CC1=CC(C)(C)Nc2ccc3c(c21)/C(=C/c1ccc(F)cc1)Oc1ccccc1-3 [Compound 221, (Z)-5-(4-Fluorobenzylidene)-1,2-dihydro-2,2,4-trimethyl-5H-chromeno[3,4-f]quinoline] | – | 105% | < 20% | – | –
5 | CC1=CC(C)(C)Nc2ccc3c(c21)/C(=C/c1ccccc1F)Oc1ccccc1-3 [Compound 228, (Z)-5-(2-Fluorobenzylidene)-1,2-dihydro-2,2,4-trimethyl-5H-chromeno[3,4-f]quinoline] | – | 114% | < 20% | – | –
6 | CC1=CC(C)(C)Nc2cc(C)c3c(c21)/C(=C/c1ccccc1)Oc1ccc(F)cc1-3 [Compound 377, (Z)-5-Benzylidene-9-fluoro-1,2-dihydro-2,2,4,11-tetramethyl-5H-chromeno[3,4-f]quinoline] | – | 101% | < 20% | – | –
7 | CC1=CC(C)(C)Nc2ccc3c(c21)/C(=C/c1ccccc1)Oc1ccccc1-3 [Compound 220, (Z)-5-Benzylidene-1,2-dihydro-2,2,4-trimethyl-5H-chromeno[3,4-f]quinoline] | – | 147% | < 20% | – | –
8 | CC1C(=O)C(C)(C)Nc2ccc(-c3cc(F)cc(C#N)c3)cc21 (stereo not drawn) [Compound 286, 6-(3-Cyano-5-fluorophenyl)-1,2-dihydro-2,2,4-trimethyl-3-quinolone] | – | < 20% | 84% | – | –
9 | CCCO[C@@H]1[C@@H](C)c2c(ccc3c2[C@H](c2ccc(Cl)cc2)Oc2ccccc2-3)NC1(C)C (relative stereo) [Compound 400, (R/S-3l,4u,5u)-5-(4-Chlorophenyl)-1,2,3,4-tetrahydro-3-propyloxy-2,2,4-trimethyl-5H-chromeno[3,4-f]quinoline] | – | < 20% | 68% | – | –
10 | CC1C(=O)C(C)(C)Nc2ccc3c(c21)/C(=C/c1cccc(F)c1)Oc1ccccc1-3 (racemic) [Compound 389, (Z)-(R/S)-5-(3-Fluorobenzylidene)-1,2,3,4-tetrahydro-2,2,4-trimethyl-5H-chromeno[3,4-f]-3-quinolinone] | – | 133% | < 20% | – | –
11 | CC1CC(C)(C)Nc2ccc(-c3cc(F)cc(C#N)c3)cc21 (racemic) [Compound 455, (R/S)-6-(3-Cyano-5-fluorophenyl)-1,2,3,4-Tetrahydro-2,2,4-trimethylquinoline] | – | < 20% | 76% | – | –
12 | CC1(C)C=Cc2c(ccc3c2c(=O)oc2ccc(Cl)cc23)N1 [Compound 313, 9-Chloro-1,2-dihydro-2,2-dimethyl-5-coumarino[3,4-f]quinoline] | – | – | – | 26% | 94%
13 | CC1=CC(C)(C)Nc2ccc(-c3csc(C#N)c3)cc21 [Compound 452, 6-(5-Cyano-3-thienyl)-1,2-dihydro-2,2,4-trimethylquinoline] | – | 119% | 70% | – | –
14 | CC1=CC(C)(C)Nc2c(F)cc(-c3cccc([N+](=O)[O-])c3)cc21 [Compound 291, 8-Fluoro-1,2-dihydro-2,2,4-trimethyl-6-(3-nitrophenyl)quinoline] | – | < 20% | 79% | – | –
15 | CC1=CC(C)(C)Nc2ccc(-c3cccc(Cl)c3Cl)cc21 [Compound 109, 6-(2,3-Dichlorophenyl)-1,2-dihydro-2,2,4-trimethylquinoline] | – | < 20% | 87% | – | –
16 | CC1=CC(C)(C)Nc2ccc3c(c21)COc1c(Cl)cccc1-3 [Compound 331, (R/S)-7-Chloro-1,2-dihydro-2,2,4-trimethyl-5H-chromeno[3,4-f]quinoline] | – | < 20% | 88% | – | –
17 | CC1=CC(C)(C)Nc2ccc(-c3nn(C)cc3Br)cc21 [Compound 104, 6-(4-Bromo-1-methylpyrazol-3-yl)-1,2-dihydro-2,2,4-trimethylquinoline] | – | 39% | 71% | – | –
18 | CCCCC1Oc2ccccc2-c2ccc3c(c21)C(C)C(O)(CCCC)C(C)(C)N3 (racemic) [Compound 385, (R/S)-3,5-Dibutyl-1,2,3,4-tetrahydro-3-hydroxy-2,2,4-trimethyl-5H-chromeno[3,4-f]quinoline] | – | 27% | 45% | – | –
19 | CC1=CC(C)(C)Nc2ccc3c(c21)/C(=C/c1ccccc1C)Oc1ccc(F)cc1-3 [Compound 374, (Z)-9-Fluoro-1,2-dihydro-2,2,4-trimethyl-5-(2-methylbenzylidene)-5H-chromeno[3,4-f]quinoline] | – | 231% | < 20% | – | –
20 | CC1=CC(C)(C)Nc2ccc(-c3cccc([N+](=O)[O-])c3)c(Cl)c21 [Compound 310, 5-Chloro-1,2-dihydro-2,2,4-trimethyl-6-(3-nitrophenyl)quinoline] | – | < 20% | 70% | – | –
21 | CC(=O)[C@H]1CC[C@H]2[C@@H]3CCC4=CC(=O)CC[C@]4(C)[C@H]3CC[C@]12C [Prog, progesterone, reference compound] | – | 100% | < 20% | – | –
22 | CC1(C)C=Cc2c(ccc3c2/C(=C/c2ccccc2)Oc2ccc(Cl)cc2-3)N1 [Compound 368, (Z)-5-Benzylidene-9-chloro-1,2-dihydro-2,2-dimethyl-5H-chromeno[3,4-f]quinoline] | – | 183% | < 20% | – | –
23 | CC1=CC(C)(C)Nc2ccc(-n3cnc(Cl)c3Cl)cc21 [Compound 103, 6-(4,5-Dichloroimidazol-1-yl)-1,2-dihydro-2,2,4-trimethylquinoline] | – | < 20% | 91% | – | –
